Literature values, collected in paper PMC10673369, “Preliminary SAR of Novel Pleuromutilin–Polyamine Conjugates” (Microorganisms, 2023).

Key:
Set-up in all cases: method as in PMID 22191527, PMID 27742734, PMID 23836172, PMID 30019769
[1] = system: fastidious Gram-negative bacteria, including Haemophilus influenza and Moraxella catarrhalis; conditions: incl. Haemophilus influenza and Moraxella catarrhalis; cited from earlier work
[2] = system: non-fastidious Gram-negative bacteria; conditions: cited from earlier work
[3] = system: aerobic Gram-positive bacteria; conditions: incl. MRSA, VISA, hVISA, VRSA, PRSP, multidrug-resistant S. pneumoniae, VRE; cited from earlier work

For `C=C[C@]1(C)C[C@@H](OC(=O)CS[C@@H]2CC[C@@H](N)C[C@H]2O)[C@]2(C)[C@H](C)CC[C@]3(CCC(=O)[C@H]32)[C@@H](C)[C@@H]1O` [Compound 6, lefamulin], the “Antibacterial activity against fastidious Gram-negative bacteria” value [1] is listed as “favorable to moderate activity”, the “Antibacterial activity against non-fastidious Gram-negative bacteria” value [2] is listed as “no activity” and the “Antibacterial activity against aerobic Gram-positive bacteria” value [3] is listed as “potent antibacterial activity”.
